In US7700611B2, “Synthesis and crystalline forms of NPY5 antagonist” (Merck Sharp & Dohme Corp., priority 2005, dated 2010):

Assay: Thermodynamic stability of crystalline polymorphs (enantiotropic transition, storage)
Format: physicochemical
Conditions: for enantiotropic transition temperature between Form A and Form C: free base polymorphs; for thermodynamic stability of the crystalline form: relative to other crystalline forms of Compound I, temperature range as stated; for solid form stability at room temperature / on storage: room temperature (22° C.)

Structure (SMILES) | enantiotropic transition temperature between Form A and Form C | thermodynamic stability of the crystalline form | solid form stability at room temperature / on storage
O=C1O[C@]2(CC[C@H](C(=O)Nc3ccn(-c4ccccc4F)n3)CC2)c2cnccc21 [Form C, trans-N-[1-(2-fluorophenyl)-3-pyrazolyl]-3-oxosiro[6-azaisobenzofuran-1(3H),1′-cyclohexane]-4′-carboxamide] | approximately 81 °C | most thermodynamically stable crystalline form of Compound I below 81 °C | not subject to transforming to another crystal form
O=C1O[C@]2(CC[C@H](C(=O)Nc3ccn(-c4ccccc4F)n3)CC2)c2cnccc21 [Form A, trans-N-[1-(2-fluorophenyl)-3-pyrazolyl]-3-oxospiro[6-azaisobenzofuran-1(3H),1′-cyclohexane]-4′-carboxamide] | approximately 81 °C | most thermodynamically stable crystalline form of compound (I) above 81 °C | instability
